Data on seven compounds can be found in ChEMBL document CHEMBL5550130, “Discovery of harmiprims, harmine-primaquine hybrids, as potent and selective anticancer and antimalarial compounds” (Bioorg Med Chem, 2024).

Molecules are shown by their SMILES. Active and inactive are the calls of the source. The calls are words filed in the database; no cut-off is given here.

For one data set, the system named is SW-620. The experiment in a line: Antiproliferative activity against human SW620 cells assessed as reduction in cell viability incubated for 72 hrs by MTT assay. Type of data set: functional, cell-based. To be noted: SW-620, 72 h. On the technique in general: Formazan colour is commonly taken as a measure of viable cells.
One may read the IC50 as the midpoint of a concentration-inhibition curve. For `COc1cc(NC(C)CCCNC(=O)NCCOc2ccc3c(c2)[nH]c2c(C)nccc23)c2ncccc2c1` (stereo not drawn), the concentration for half-maximal inhibition (IC50) worked out at 7.59 µM.

Take `COc1ccc2c(c1)[nH]c1c(C)nccc12` [HARMINE]: the IC50 came out at 7.32 µM.

`COc1cc(NC(C)CCCn2cc(COc3ccc4[nH]c5c(C)nccc5c4c3)nn2)c2ncccc2c1` (stereo not drawn): the IC50 is 8.94 µM.

`COc1cc(NC(C)CCCNC(=O)NCCn2c3cc(OC)ccc3c3ccnc(C)c32)c2ncccc2c1` (stereo not drawn): the IC50 amounted to 9.93 µM.

The test system of the next data set is HepG2. Kind of data set: Antiproliferative activity against human HepG2 cells assessed as reduction in cell viability incubated for 72 hrs by MTT assay. In kind it is functional, cell-based. To be noted: HepG2, 72 h.
In the case of `O=c1[nH]cc(F)c(=O)[nH]1` [FLUOROURACIL], the half-maximal inhibitory concentration (IC50) was found to be 5.46 µM.

As for `COc1cc(NC(C)CCCNC(=O)NCCOc2ccc3c(c2)[nH]c2c(C)nccc23)c2ncccc2c1` (stereo not drawn), the IC50 was found to be 7.97 µM.

For `COc1ccc2c(c1)[nH]c1c(C)nccc12` [HARMINE], the IC50 was 14.9 µM.

In the case of `COc1cc(NC(C)CCCn2cc(COc3ccc4[nH]c5c(C)nccc5c4c3)nn2)c2ncccc2c1` (stereo not drawn), the half-maximal inhibitory concentration (IC50) amounted to 6.67 µM.

Regarding `COc1cc(NC(C)CCCNC(=O)NCCn2c3cc(OC)ccc3c3ccnc(C)c32)c2ncccc2c1` (stereo not drawn), the IC50 came to 12.3 µM.

The next data set has as its system HCT-116. The experiment in a line: Antiproliferative activity against human HCT-116 cells assessed as reduction in cell viability incubated for 72 hrs by MTT assay. Type of data set: functional, cell-based. To be noted: HCT-116, 72 h.
For `O=c1[nH]cc(F)c(=O)[nH]1` [FLUOROURACIL], the IC50 was determined as 14.4 µM.

With `COc1cc(NC(C)CCCNC(=O)NCCOc2ccc3c(c2)[nH]c2c(C)nccc23)c2ncccc2c1` (stereo not drawn), the half-inhibitory concentration (IC50) is 7.71 µM.

With `COc1ccc2c(c1)[nH]c1c(C)nccc12` [HARMINE], the IC50 amounted to 7.64 µM.

For the compound `COc1cc(NC(C)CCCn2cc(COc3ccc4[nH]c5c(C)nccc5c4c3)nn2)c2ncccc2c1` (stereo not drawn), the 50% inhibitory concentration (IC50) is 18.2 µM.

As to `COc1cc(NC(C)CCCNC(=O)NCCn2c3cc(OC)ccc3c3ccnc(C)c32)c2ncccc2c1` (stereo not drawn), the IC50 stood at 10.6 µM.

Another data set concerns MCF7. Kind of data set: Antiproliferative activity against human MCF7 cells assessed as reduction in cell viability incubated for 72 hrs by MTT assay. The following applies: MCF7, 72 h. In kind it is functional, cell-based.
In the case of `O=c1[nH]cc(F)c(=O)[nH]1` [FLUOROURACIL], the IC50 was 23.9 µM.

As to `COc1cc(NC(C)CCCNC(=O)NCCOc2ccc3c(c2)[nH]c2c(C)nccc23)c2ncccc2c1` (stereo not drawn), the concentration for half-maximal inhibition (IC50) was 8.87 µM.

Consider `COc1cc(NC(C)CCCn2cc(COc3ccc4[nH]c5c(C)nccc5c4c3)nn2)c2ncccc2c1` (stereo not drawn), for which the IC50 is 9.45 µM.

Turning to `COc1cc(NC(C)CCCNC(=O)NCCn2c3cc(OC)ccc3c3ccnc(C)c32)c2ncccc2c1` (stereo not drawn), the 50% inhibitory concentration (IC50) came out at 9.15 µM.

Tested on in a further data set: not listed separately
The experiment in a line: Antiproliferative activity against human HEK293T cells assessed as reduction in cell viability incubated for 72 hrs by MTT assay. In kind it is toxicity, cell-based, HEK-293T.
Details: not given
`O=c1[nH]cc(F)c(=O)[nH]1` [FLUOROURACIL]: the 50% inhibitory concentration (IC50) at 72 h is 17.6 µM.

Turning to `COc1cc(NC(C)CCCNC(=O)NCCOc2ccc3c(c2)[nH]c2c(C)nccc23)c2ncccc2c1` (stereo not drawn), the IC50 at 72 h stood at 7.63 µM.

In the case of `COc1ccc2c(c1)[nH]c1c(C)nccc12` [HARMINE], the IC50 at 72 h is 21 µM.

For `COc1cc(NC(C)CCCn2cc(COc3ccc4[nH]c5c(C)nccc5c4c3)nn2)c2ncccc2c1` (stereo not drawn), the IC50 at 72 h stood at 25.2 µM.

For the compound `COc1cc(NC(C)CCCNC(=O)NCCn2c3cc(OC)ccc3c3ccnc(C)c32)c2ncccc2c1` (stereo not drawn), the IC50 at 72 h came to 12.7 µM.

Tested on in another data set: not listed separately
Kind of data set: Selectivity index, ratio of IC50 for antiproliferative activity against human HEK293T cells to IC50 for antiproliferative activity against human MCF7 cells. Type of data set: toxicity, cell-based. The following applies: HEK293T cells versus MCF7 cells, read-out: Ratio IC50.
With `O=c1[nH]cc(F)c(=O)[nH]1` [FLUOROURACIL], the selectivity ratio came to 0.74.

As to `COc1cc(NC(C)CCCNC(=O)NCCOc2ccc3c(c2)[nH]c2c(C)nccc23)c2ncccc2c1` (stereo not drawn), the selectivity ratio was 0.86.

Consider `COc1ccc2c(c1)[nH]c1c(C)nccc12` [HARMINE], for which the selectivity ratio stood at 1.55.

As to `COc1cc(NC(C)CCCn2cc(COc3ccc4[nH]c5c(C)nccc5c4c3)nn2)c2ncccc2c1` (stereo not drawn), the selectivity ratio was 2.67.

For the compound `COc1cc(NC(C)CCCNC(=O)NCCn2c3cc(OC)ccc3c3ccnc(C)c32)c2ncccc2c1` (stereo not drawn), the selectivity ratio is 1.39.

For another data set, the system named is Calf thymus DNA. Kind of data set: Binding affinity to calf thymus DNA assessed as binding constant by UV-Visible absorption spectroscopic analysis. To be noted: Bos taurus.
Take `COc1cc(NC(C)CCCn2cc(COc3ccc4[nH]c5c(C)nccc5c4c3)nn2)c2ncccc2c1` (stereo not drawn): the log Ks is 3.4.

A further data set deals with RNA. Kind of data set: Binding affinity to double stranded RNA (unknown origin) assessed as binding constant by UV-Visible absorption spectroscopic analysis. Type of data set: nucleic-acid assay.
Details: not given
For `COc1cc(NC(C)CCCn2cc(COc3ccc4[nH]c5c(C)nccc5c4c3)nn2)c2ncccc2c1` (stereo not drawn), the log Ks was 3.4.

The next data set deals with Plasmodium falciparum. Kind of data set: Antiplasmodial activity against erythrocytic stage of chloroquine-sensitive Plasmodium falciparum 3D7 assessed as inhibition of parasite growth incubated for 3 days by HRP2-ELISA. Type of data set: functional, organism-based. To be noted: 3D7, 72 h. (In an ELISA, binding on a coated surface is turned into a signal by an enzyme label.)
As to `COc1cc(NC(C)CCCNC(=O)NCCOc2ccc3c(c2)[nH]c2c(C)nccc23)c2ncccc2c1` (stereo not drawn), the IC50 turned out to be 6.77 µM.

For `COc1cc(NC(C)CCCn2cc(COc3ccc4[nH]c5c(C)nccc5c4c3)nn2)c2ncccc2c1` (stereo not drawn), the half-inhibitory concentration (IC50) was 0.425 µM.

`COc1cc(NC(C)CCCNC(=O)NCCn2c3cc(OC)ccc3c3ccnc(C)c32)c2ncccc2c1` (stereo not drawn): the IC50 is 0.702 µM.

The next data set relates to Plasmodium falciparum. Kind of data set: Antiplasmodial activity against erythrocytic stage of chloroquine-resistant Plasmodium falciparum Dd2 assessed as inhibition of parasite growth incubated for 3 days by HRP2-ELISA. In kind it is functional, organism-based. The following applies: Dd2, 72 h.
For `COc1cc(NC(C)CCCNC(=O)NCCOc2ccc3c(c2)[nH]c2c(C)nccc23)c2ncccc2c1` (stereo not drawn), the IC50 is 8.07 µM.

For `COc1ccc2c(c1)[nH]c1c(C)nccc12` [HARMINE], the concentration for half-maximal inhibition (IC50) was over 27.7 µM.

Consider `COc1cc(NC(C)CCCn2cc(COc3ccc4[nH]c5c(C)nccc5c4c3)nn2)c2ncccc2c1` (stereo not drawn), for which the IC50 was 0.895 µM.

Take `COc1cc(NC(C)CCCNC(=O)NCCn2c3cc(OC)ccc3c3ccnc(C)c32)c2ncccc2c1` (stereo not drawn): the 50% inhibitory concentration (IC50) turned out to be 1.1 µM.

Tested on in another data set: not listed separately
The experiment in a line: Selectivity index, ratio of IC50 for antiproliferative activity against human HEK293T cells to IC50 for antiplasmodial activity against erythrocytic stage of chloroquine-sensitive Plasmodium falciparum 3D7. In kind it is toxicity, cell-based. The following applies: read-out: Ratio IC50.
Turning to `COc1cc(NC(C)CCCNC(=O)NCCOc2ccc3c(c2)[nH]c2c(C)nccc23)c2ncccc2c1` (stereo not drawn), the selectivity ratio was determined as 1.1.

Regarding `COc1ccc2c(c1)[nH]c1c(C)nccc12` [HARMINE], the selectivity ratio turned out to be 2.5.

With `COc1cc(NC(C)CCCNC(=O)NCCn2c3cc(OC)ccc3c3ccnc(C)c32)c2ncccc2c1` (stereo not drawn), the selectivity ratio was determined as 18.1.

In the next data set the test system is Calf thymus DNA. Kind of data set: Binding affinity to calf thymus DNA assessed as thermal stabilization by thermal denaturation based UV-Visible absorption spectroscopic analysis. To be noted: Bos taurus.
On to `COc1cc(NC(C)CCCn2cc(COc3ccc4[nH]c5c(C)nccc5c4c3)nn2)c2ncccc2c1` (stereo not drawn), for which the result was inactive.

The subject of another data set is Plasmodium falciparum. The experiment in a line: Resistance index, ratio of IC50 for antiplasmodial activity against erythrocytic stage of chloroquine-resistant Plasmodium falciparum Dd2 to IC50 for antiplasmodial activity against erythrocytic stage of chloroquine-sensitive Plasmodium falciparum 3D7.
Details: not given
In kind it is functional.
`COc1cc(NC(C)CCCNC(=O)NCCOc2ccc3c(c2)[nH]c2c(C)nccc23)c2ncccc2c1` (stereo not drawn): the “Ratio IC50” value is 1.2.

`COc1ccc2c(c1)[nH]c1c(C)nccc12` [HARMINE]: the “Ratio IC50” value is over 3.36.

As to `COc1cc(NC(C)CCCn2cc(COc3ccc4[nH]c5c(C)nccc5c4c3)nn2)c2ncccc2c1` (stereo not drawn), the “Ratio IC50” value amounted to 2.11.

Take `COc1cc(NC(C)CCCNC(=O)NCCn2c3cc(OC)ccc3c3ccnc(C)c32)c2ncccc2c1` (stereo not drawn): the “Ratio IC50” value came to 1.57.

The next data set relates to RNA. Kind of data set: Binding affinity to double stranded RNA (unknown origin) assessed as thermal stabilization by thermal denaturation based UV-Visible absorption spectroscopic analysis.
Details: not given
Type of data set: nucleic-acid assay.
As for `COc1cc(NC(C)CCCn2cc(COc3ccc4[nH]c5c(C)nccc5c4c3)nn2)c2ncccc2c1` (stereo not drawn), the result was inactive.

Another data set relates to dsDNA. Kind of data set: Binding affinity to double stranded DNA (unknown origin) by CD spectroscopic analysis. In kind it is nucleic-acid assay.
Details: not given
`COc1cc(NC(C)CCCn2cc(COc3ccc4[nH]c5c(C)nccc5c4c3)nn2)c2ncccc2c1` (stereo not drawn): the outcome was inactive.

Another data set has as its system RNA. Kind of data set: Binding affinity to double stranded RNA (unknown origin) by CD spectroscopic analysis. In kind it is nucleic-acid assay.
Details: not given
Regarding `COc1cc(NC(C)CCCn2cc(COc3ccc4[nH]c5c(C)nccc5c4c3)nn2)c2ncccc2c1` (stereo not drawn), the result was inactive.

Tested on in another data set: not listed separately
The experiment in a line: Drug uptake in human MCF7 cells at 10 uM incubated for 30 mins by fluorescence microscopic analysis. In kind it is ADME, cell-based. The following applies: mcf7, 0.5 h.
For `COc1cc(NC(C)CCCn2cc(COc3ccc4[nH]c5c(C)nccc5c4c3)nn2)c2ncccc2c1` (stereo not drawn), the Drug uptake entry is reported as “Active”.

The test system of another data set is Plasmodium falciparum. Kind of data set: Gametocytocidal activity against gametocytes of Plasmodium falciparum NF54 assessed as inhibition of ATP production measured after 48 hrs by Bac-TiterGlo analysis. In kind it is functional, organism-based. To be noted: NF54, 48 h.
With `CC[C@H](C)[C@H](NC(=O)[C@H]([C@@H](C)CC)N(C)C(C)=O)C(=O)N[C@H](C(=O)N[C@@H](CC(C)C)C(=O)[C@@]1(C)CO1)[C@@H](C)O` [EPOXOMYCIN], the IC50 was found to be 0.0167 µM.

As to `CN(C)c1ccc2nc3ccc(N(C)C)cc3[s+]c2c1` [METHYLENE BLUE ANHYDROUS], the IC50 came out at 0.506 µM.

Another data set relates to dsDNA. Kind of data set: Binding affinity to double stranded DNA (unknown origin) assessed as increase in fluorescence intensity by fluorescence quenching analysis. In kind it is nucleic-acid assay.
Details: not given
For `COc1cc(NC(C)CCCn2cc(COc3ccc4[nH]c5c(C)nccc5c4c3)nn2)c2ncccc2c1` (stereo not drawn), the result was inactive.

In another data set the test system is RNA. The experiment in a line: Binding affinity to double stranded RNA (unknown origin) assessed as increase in fluorescence intensity by fluorescence quenching analysis. Type of data set: nucleic-acid assay.
Details: not given
For the compound `COc1cc(NC(C)CCCn2cc(COc3ccc4[nH]c5c(C)nccc5c4c3)nn2)c2ncccc2c1` (stereo not drawn), the outcome was inactive.
